Among the data in PubChem BioAssay (NCI) are TGI values, retold here.

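Exposure lasted 48 hours, with cells grown in 96-well plates and compounds tested at five concentrations. At the TGI there is no net growth.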

Among the test systems are ACHN renal; HCT-116 colon; MCF7 breast; MDA-N; NCI-H522 lung; OVCAR-4 ovarian; RPMI-8226 leukemia; SK-MEL-2 melanoma; UO-31 renal; U251 CNS; NCI-H226 lung.
Common to all, as to assay: NCI anticancer screen, dose series, 48 h

In the case of `COc1cc(NC(C)=O)ccc1C(=O)NN1C(=O)/C(=C/c2ccco2)N=C1c1ccccc1`, the TGI with ACHN renal, in the experiment with HCT-116 colon, with MCF7 breast, with MDA-N, in the experiment with NCI-H522 lung and with OVCAR-4 ovarian was > 50 µM in each case. The values for the TGI with RPMI-8226 leukemia, in the experiment with SK-MEL-2 melanoma and with UO-31 renal were 31.8 µM, > 50 µM and > 50 µM, respectively.

Turning to `COc1ccc(CC2COc3cc(O)cc(O)c3C2=O)cc1O` (configuration not stated), the TGI in the experiment with ACHN renal is > 100 µM; in the experiment with MCF7 breast it was > 100 µM; in the experiment with NCI-H522 lung, > 100 µM; with OVCAR-4 ovarian it was > 100 µM; in the experiment on RPMI-8226 leukemia, 28.5 µM; in the experiment with SK-MEL-2 melanoma it was > 100 µM. In addition, the TGI with U251 CNS and with UO-31 renal was > 100 µM throughout.

Regarding `O=c1[nH]c(=O)n(C2CC(O)C(CO)O2)cc1OCc1ccccc1` (configuration not stated), the TGI in the experiment on ACHN renal, with HCT-116 colon, in the experiment with MCF7 breast, with MDA-N, in the experiment on NCI-H226 lung and in the experiment on NCI-H522 lung was > 100 µM throughout. Further, the TGI with OVCAR-4 ovarian, in the experiment with RPMI-8226 leukemia, in the experiment on U251 CNS and in the experiment with UO-31 renal was > 100 µM in each case.

For `OCc1ccc2c(c1)CC1(Cc3ccc(/C=N/O)cc3C1)C2` (configuration not stated), the TGI with ACHN renal is > 80.6 µM; in the experiment on HCT-116 colon it was > 100 µM; with NCI-H226 lung, 71 µM; in the experiment with NCI-H522 lung, 10.8 µM; in the experiment on OVCAR-4 ovarian it was > 61.7 µM; in the experiment with RPMI-8226 leukemia, 28.6 µM. The TGI was 42.3 µM in the experiment on SK-MEL-2 melanoma, > 49.3 µM with U251 CNS and 80.9 µM in the experiment on UO-31 renal.

`O=c1cc(N2CCCC2)[nH]c(=O)n1-c1ccccc1`: the TGI with ACHN renal, in the experiment with HCT-116 colon, with MCF7 breast, with NCI-H226 lung, in the experiment on NCI-H522 lung and in the experiment on OVCAR-4 ovarian was > 100 µM each time. The TGI with RPMI-8226 leukemia, in the experiment with SK-MEL-2 melanoma and in the experiment with U251 CNS was > 100 µM in each case.

As to `CCOC(=O)/C(O)=C1\C(=O)N(C)C(=O)C1c1cccc(OC)c1` (configuration not stated), the TGI in the experiment on HCT-116 colon, in the experiment with MCF7 breast, with NCI-H226 lung, in the experiment with NCI-H522 lung, in the experiment on OVCAR-4 ovarian and with RPMI-8226 leukemia was > 100 µM each time. Further, the TGI in the experiment on SK-MEL-2 melanoma, in the experiment on U251 CNS and in the experiment on UO-31 renal was > 100 µM throughout.

For `N#Cc1c(-c2ccccc2)cc(-c2ccc(Cl)cc2)[nH]c1=S`, the TGI in the experiment on ACHN renal is > 100 µM; in the experiment with HCT-116 colon, > 100 µM; in the experiment on MCF7 breast, 53.1 µM; in the experiment on MDA-N, > 100 µM; in the experiment with NCI-H226 lung, 80.5 µM; in the experiment with NCI-H522 lung, 70.5 µM. Also, the TGI is > 100 µM with OVCAR-4 ovarian, 80.2 µM in the experiment with RPMI-8226 leukemia, 48.5 µM in the experiment with U251 CNS and > 100 µM with UO-31 renal.

As for `COc1ccc(C2c3cc4c(cc3OC(N3CCOCC3)C2C)OCO4)c(OC)c1OC` (configuration not stated), the TGI with ACHN renal turned out to be 64.9 µM; in the experiment on HCT-116 colon it was 22.3 µM; with MCF7 breast it was 80.2 µM; with MDA-N it was 8.42 µM; in the experiment with NCI-H522 lung, 29.7 µM; in the experiment on RPMI-8226 leukemia it was 39.8 µM. The TGI is 36.2 µM with SK-MEL-2 melanoma and 35.1 µM with UO-31 renal.

Regarding `COc1cc2ccc1OCc1cccc(n1)COc1ccc(cc1OC)C=Nc1ccc(cc1)N=C2`, the TGI in the experiment with ACHN renal, in the experiment with HCT-116 colon, in the experiment with MCF7 breast, in the experiment with MDA-N, in the experiment on NCI-H226 lung and in the experiment with NCI-H522 lung was > 100 µM in each case. Moreover, the TGI with OVCAR-4 ovarian, in the experiment on SK-MEL-2 melanoma, in the experiment on U251 CNS and with UO-31 renal was > 100 µM each time.

In the case of `CN(C)CCC(=O)/C=C\c1ccccc1`, the TGI is 32.5 µM with ACHN renal; 28.7 µM in the experiment with HCT-116 colon; 49.3 µM with NCI-H226 lung; 39.3 µM in the experiment with NCI-H522 lung; 33.3 µM in the experiment with OVCAR-4 ovarian; 34.4 µM with RPMI-8226 leukemia. The TGI came out at 31.6 µM with U251 CNS and 34 µM with UO-31 renal.

In the case of `COc1ccc(-c2cc(-c3ccccc3)[nH]c(=S)c2C#N)cc1`, the TGI was > 100 µM in the experiment with ACHN renal; > 100 µM with HCT-116 colon; > 100 µM with MCF7 breast; > 100 µM with MDA-N; 96.2 µM in the experiment with NCI-H226 lung; > 100 µM in the experiment on NCI-H522 lung. The TGI was > 100 µM in the experiment on OVCAR-4 ovarian, 51.7 µM with RPMI-8226 leukemia, 54.4 µM with U251 CNS and 45.7 µM in the experiment with UO-31 renal.

`COc1ccc(COCC[C@H](C)OC2OC(CO[Si](C)(C)C(C)(C)C)C(OC(=O)CCCN=[N+]=[N-])C(OC(=O)CCCN=[N+]=[N-])C2OC(=O)CCCN=[N+]=[N-])cc1` (some centres not stated): the TGI with HCT-116 colon was > 100 µM; with MCF7 breast it was > 100 µM; with MDA-N, > 100 µM; in the experiment with NCI-H226 lung it was 89.2 µM; in the experiment on NCI-H522 lung, > 100 µM; with OVCAR-4 ovarian, > 100 µM. Also, the TGI in the experiment with SK-MEL-2 melanoma was > 100 µM; with U251 CNS, > 100 µM; with UO-31 renal, 66.2 µM.

For the compound `COC(=O)C1=Nc2c(C)nn(-c3ccccc3)c2N=C(c2ccccc2)C1`, the TGI with ACHN renal, with HCT-116 colon, in the experiment on MCF7 breast, with MDA-N, in the experiment with NCI-H522 lung and in the experiment with OVCAR-4 ovarian was > 10 µM in each case. Moreover, the TGI in the experiment with RPMI-8226 leukemia and in the experiment on U251 CNS was > 10 µM throughout.

With `O=C(Nc1noc(-c2ccccc2)n1)c1ccccc1CNc1noc(-c2ccccc2)n1`, the TGI with ACHN renal, in the experiment with HCT-116 colon, in the experiment on MCF7 breast, with MDA-N, in the experiment on NCI-H226 lung and in the experiment with NCI-H522 lung was > 100 µM in each case. For the same compound, the TGI in the experiment with OVCAR-4 ovarian, with RPMI-8226 leukemia, with U251 CNS and in the experiment with UO-31 renal was > 100 µM in each case.
